Experimental data as given in ChEMBL document CHEMBL1201862, “PubChem BioAssay data set” (2004).
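Tested at 5 concentrations; 48 h exposure; 96-well plates; endpoints linearly interpolated, else capped at highest concentration. The concentration for 50% growth inhibition is given as GI50.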 Activity calls are given as the source filed them. Rule as the data show it: active = GI50 up to about 1.1 µM and inactive = higher.

Columns and labels:
Assay in all cases: NCI-60 cell line screen, 48 h
NCI-H23 = system: NCI-H23
SR = system: SR
MDA-MB-435 = system: MDA-MB-435
HCC 2998 = system: HCC 2998
HOP-62 = system: HOP-62
SW-620 = system: SW-620
CCRF-CEM = system: CCRF-CEM
NCI-H522 = system: NCI-H522
NCI-H460 = system: NCI-H460
OVCAR-8 = system: OVCAR-8
SK-MEL-5 = system: SK-MEL-5
HCT-15 = system: HCT-15
U-251 = system: U-251
SNB-19 = system: SNB-19
IGROV-1 = system: IGROV-1
SN12C = system: SN12C
OVCAR-5 = system: OVCAR-5
SNB-75 = system: SNB-75
UACC-257 = system: UACC-257
A498 = system: A498

Compound	GI50 (NCI-H23)	GI50 (SR)	GI50 (MDA-MB-435)	GI50 (HCC 2998)	GI50 (HOP-62)	GI50 (SW-620)	GI50 (CCRF-CEM)	GI50 (NCI-H522)	GI50 (NCI-H460)	GI50 (OVCAR-8)	GI50 (SK-MEL-5)	GI50 (HCT-15) [µM]	GI50 (U-251)	GI50 (SNB-19)	GI50 (IGROV-1)	GI50 (SN12C)	GI50 (OVCAR-5)	GI50 (SNB-75)	GI50 (UACC-257)	GI50 (A498)
Nc1nc(N)c2nc(CN(C=O)c3ccc(C(=O)O)cc3)cnc2n1	20 µM (inactive)	10.1 µM (inactive)	17.9 µM (inactive)	> 100 µM (inactive)	14 µM (inactive)	17 µM (inactive)	4.15 µM (inactive)	0.438 µM (active)	7.55 µM (inactive)	3.85 µM (inactive)	63.4 µM (inactive)	7.14	> 93.5 µM (inactive)	> 42.2 µM (inactive)	44.5 µM (inactive)	52.6 µM (inactive)	> 70 µM (inactive)	> 52.1 µM (inactive)	> 100 µM (inactive)	–
OC1(c2ccc(-c3ccccc3)cc2)c2ccccc2C2=NCCN21 (stereo not given)	20.1 µM (inactive)	33.8 µM (inactive)	32.2 µM (inactive)	19.1 µM (inactive)	16.6 µM (inactive)	45.4 µM (inactive)	39.9 µM (inactive)	–	45.8 µM (inactive)	–	19.8 µM (inactive)	39.9	37.7 µM (inactive)	15.4 µM (inactive)	–	> 100 µM (inactive)	–	19.3 µM (inactive)	36.1 µM (inactive)	31.6 µM (inactive)
c1cc2c3ccsc3c3sccc3c2s1	47.5 µM (inactive)	24.7 µM (inactive)	> 100 µM (inactive)	36.4 µM (inactive)	21.4 µM (inactive)	> 100 µM (inactive)	> 100 µM (inactive)	–	> 100 µM (inactive)	> 100 µM (inactive)	> 100 µM (inactive)	> 100	> 100 µM (inactive)	–	16.3 µM (inactive)	> 100 µM (inactive)	> 100 µM (inactive)	23.1 µM (inactive)	> 100 µM (inactive)	> 100 µM (inactive)
O=C(NCc1cccc2ccccc12)N/N=C\c1ccc(Cl)cc1	> 100 µM (inactive)	> 100 µM (inactive)	28.1 µM (inactive)	57.7 µM (inactive)	> 100 µM (inactive)	88.3 µM (inactive)	> 100 µM (inactive)	36.6 µM (inactive)	67 µM (inactive)	> 100 µM (inactive)	46 µM (inactive)	> 100	> 100 µM (inactive)	> 100 µM (inactive)	> 100 µM (inactive)	> 100 µM (inactive)	> 100 µM (inactive)	62.8 µM (inactive)	> 100 µM (inactive)	–
Cc1c(C)c(C)c(-n2[nH]c(=O)n(C)c2=O)c(C)c1C	> 100 µM (inactive)	> 100 µM (inactive)	> 100 µM (inactive)	–	> 100 µM (inactive)	> 100 µM (inactive)	> 100 µM (inactive)	–	> 100 µM (inactive)	> 100 µM (inactive)	> 100 µM (inactive)	> 100	> 100 µM (inactive)	> 100 µM (inactive)	> 100 µM (inactive)	> 100 µM (inactive)	> 100 µM (inactive)	> 100 µM (inactive)	> 100 µM (inactive)	> 100 µM (inactive)
COc1c2cc(C(C)(C)C)cc1CSCc1cc(C(C)(C)C)cc(c1OC)CCCCC2	36.7 µM (inactive)	> 50 µM (inactive)	> 50 µM (inactive)	29.6 µM (inactive)	> 50 µM (inactive)	> 50 µM (inactive)	33.1 µM (inactive)	–	31.6 µM (inactive)	28.2 µM (inactive)	24.1 µM (inactive)	> 50	27 µM (inactive)	20.2 µM (inactive)	21.4 µM (inactive)	> 50 µM (inactive)	> 50 µM (inactive)	> 50 µM (inactive)	13.3 µM (inactive)	38.6 µM (inactive)
CC(=O)CC(=O)Nn1c(-c2cccs2)nc2ccc(I)cc2c1=O	> 49 µM (inactive)	> 100 µM (inactive)	> 60.7 µM (inactive)	> 39.8 µM (inactive)	> 66.4 µM (inactive)	> 52.7 µM (inactive)	> 46.8 µM (inactive)	> 49.5 µM (inactive)	> 56.1 µM (inactive)	> 57.3 µM (inactive)	> 41.6 µM (inactive)	> 57.7	> 56 µM (inactive)	> 68.2 µM (inactive)	> 46.7 µM (inactive)	> 49.8 µM (inactive)	> 55.1 µM (inactive)	43.5 µM (inactive)	33 µM (inactive)	–
CC(=O)O[C@H]1C(=O)[C@@]2(C)[C@H]([C@H](OC(=O)c3ccccc3)[C@]3(O)C[C@H](OC(=O)[C@H](O)[C@@H](NC(=O)C(C)(C)C)c4ccccc4)C(C)=C1C3(C)C)[C@]1(OC(C)=O)CO[C@@H]1C[C@@H]2O	0.075 µM (active)	0.0405 µM (active)	0.0158 µM (active)	0.0702 µM (active)	0.215 µM (active)	0.0459 µM (active)	0.0397 µM (active)	0.0306 µM (active)	0.0955 µM (active)	0.0668 µM (active)	0.0435 µM (active)	1.41	0.137 µM (active)	2.35 µM (inactive)	0.0476 µM (active)	0.0807 µM (active)	0.508 µM (active)	0.0555 µM (active)	0.127 µM (active)	–
Nc1ccc2c(O)cc(O)nc2n1	> 100 µM (inactive)	> 100 µM (inactive)	> 100 µM (inactive)	–	–	> 100 µM (inactive)	–	> 100 µM (inactive)	> 100 µM (inactive)	> 100 µM (inactive)	> 100 µM (inactive)	> 100	> 100 µM (inactive)	> 100 µM (inactive)	> 100 µM (inactive)	> 100 µM (inactive)	> 100 µM (inactive)	> 100 µM (inactive)	> 100 µM (inactive)	–
O=c1[nH]c(=O)n(COC(CO)CO)cc1-c1ccccc1	> 100 µM (inactive)	> 100 µM (inactive)	> 100 µM (inactive)	> 100 µM (inactive)	> 100 µM (inactive)	> 100 µM (inactive)	> 100 µM (inactive)	> 100 µM (inactive)	> 100 µM (inactive)	> 100 µM (inactive)	> 100 µM (inactive)	> 100	> 100 µM (inactive)	> 100 µM (inactive)	> 100 µM (inactive)	> 100 µM (inactive)	> 100 µM (inactive)	> 100 µM (inactive)	> 100 µM (inactive)	–
CCOC1CCN(C(=O)c2ccccc2)O1 (stereo not given)	> 10 µM (inactive)	> 10 µM (inactive)	> 10 µM (inactive)	> 10 µM (inactive)	> 10 µM (inactive)	> 10 µM (inactive)	> 10 µM (inactive)	> 10 µM (inactive)	> 10 µM (inactive)	> 10 µM (inactive)	> 10 µM (inactive)	> 10	–	> 10 µM (inactive)	> 10 µM (inactive)	> 10 µM (inactive)	> 10 µM (inactive)	> 10 µM (inactive)	> 10 µM (inactive)	–
CN1C(c2ccccc2)=CC(=O)C(O)=C(c2ccccc2)S1(=O)=O	> 100 µM (inactive)	> 100 µM (inactive)	> 100 µM (inactive)	> 100 µM (inactive)	> 100 µM (inactive)	> 100 µM (inactive)	> 100 µM (inactive)	> 100 µM (inactive)	> 100 µM (inactive)	> 100 µM (inactive)	> 100 µM (inactive)	> 100	> 100 µM (inactive)	> 100 µM (inactive)	> 100 µM (inactive)	> 100 µM (inactive)	> 100 µM (inactive)	> 100 µM (inactive)	> 100 µM (inactive)	–
c1csc(-c2cc(-c3cccs3)c(-c3ccsc3)s2)c1	> 100 µM (inactive)	> 100 µM (inactive)	> 100 µM (inactive)	34.2 µM (inactive)	> 100 µM (inactive)	> 100 µM (inactive)	> 100 µM (inactive)	–	> 100 µM (inactive)	> 100 µM (inactive)	> 100 µM (inactive)	19.2	> 100 µM (inactive)	> 100 µM (inactive)	> 100 µM (inactive)	56.8 µM (inactive)	–	> 100 µM (inactive)	58.1 µM (inactive)	> 100 µM (inactive)
CC[C@]1(Cc2ccc(OC)c(OC)c2)C=[N+]([O-])O[C@H](OC2CCCC2(c2ccccc2)c2ccccc2)[C@@H]1OC(=O)C(C)(C)C (stereo not given in full)	3.6 µM (inactive)	7.93 µM (inactive)	2.03 µM (inactive)	1.94 µM (inactive)	2.49 µM (inactive)	10.1 µM (inactive)	2.6 µM (inactive)	1.61 µM (inactive)	2.69 µM (inactive)	2.19 µM (inactive)	2.03 µM (inactive)	3.08	5.62 µM (inactive)	3.84 µM (inactive)	2.62 µM (inactive)	3.07 µM (inactive)	8.71 µM (inactive)	3.63 µM (inactive)	3.5 µM (inactive)	–
C1CSCCSCCS1	> 100 µM (inactive)	> 100 µM (inactive)	> 100 µM (inactive)	> 100 µM (inactive)	> 100 µM (inactive)	> 100 µM (inactive)	> 100 µM (inactive)	> 100 µM (inactive)	> 100 µM (inactive)	> 100 µM (inactive)	> 100 µM (inactive)	> 100	> 100 µM (inactive)	> 100 µM (inactive)	> 100 µM (inactive)	> 100 µM (inactive)	> 100 µM (inactive)	> 100 µM (inactive)	> 100 µM (inactive)	–
